Data on seven compounds can be found in patent US10272056B2, “Treatment for mitochondrial diseases” (The George Washington University a Congressionally …, priority 2015, dated 2019).

Where two headings read alike, the source gives them in different places.

The subject of data set [1] is MELAS fibroblasts. As to the kind of experiment: Mitochondrial mass, morphology and networking (MTG live cell confocal analysis). To be noted: three-day exposure; NaBt 2.5 mM, TBN 1.5 mM, AN9 300 μM. The data set is classed as cell-based, human. The source says: FIG. 17A-17C are images from microscopy and graphs showing that butyrates rescue the mitochondrial phenotype in MELAS fibroblasts. (A) Confocal analysis of healthy and MELAS fibroblasts treated as indicated and labeled with the MTG dye; scale bar=10 (B) Analysis of the mitochondrial mass; n=3 (60 cells per experiment; ^‡p<0.05, unpaired T-test *p<0.05, paired T-test). (C) Analysis of Δψm (^‡p<0.05, unpaired T-test; *p<0.05, paired T-test).
(§1) Butyrates rescue the mitochondrial mass, morphology, networking, membrane potential, and cellular ATP levels in MELAS fibroblasts. Skin fibroblasts from two MELAS patients and from a healthy subject as a control were used. Dose-dependent analyses of butyrates to determine their best concentrations for eliciting an optimal mitochondrial response without cellular toxicity was performed. Healthy and MELAS fibroblasts were treated with PBS, NaBt (2.5 mM), TBN (1.5 mM), or AN9 (300 μM) for three days before labeling with the MTG dye for live cell confocal analysis.
(§2) Butyrates rescue the mitochondrial mass, morphology, networking, and membrane potential in MELAS fibroblasts. Skin fibroblasts from two MELAS patients and from a healthy subject as a control were used. Dose-dependent analyses of butyrates was performed to determine their best concentrations for eliciting an optimal mitochondrial response without cellular toxicity. Healthy and MELAS fibroblasts were treated with PBS, NaBt (2.5 mM), TBN (1.5 mM), or AN9 (300 μM) for three days before labeling with the MTG dye for live cell confocal analysis.

In data set [2] the test system is MELAS fibroblasts. As to the kind of experiment: Morphometric analysis of mitochondrial connectivity (Image J). The data set is classed as cell-based, human. To be noted: Image J analysis of MTG-labeled fibroblasts. Here is the method: FIG. 18 is a graph showing that butyrate and its derivatives rescue the mitochondrial dynamics and connectivity in MELAS fibroblasts.
as §2

Data set [3] has as its system healthy and MELAS fibroblasts. The experiment in a line: Dose-dependent studies for optimal safe concentrations. To be noted: three days of treatment. The data set is classed as cell-based, human.
Text: Experimental approaches. Five distinct molecular tools were used to investigate mitochondrial biogenesis: 1) the mitochondrial-specific dyes, MitoTracker® Green (MTG) and MitoTracker® Red (MTR); 2) the mito-GFP or mito-dsRed vector to fluorescently label mitochondria; 3) antibodies against mtDNA, COXVα, or SOD2; 4) the fluorescent PicoGreen® dye labeling mtDNA; and 5) quantitative PCR to determine mtDNA copy number.
as §1

For data set [4] the following is noted: cited from earlier work; for toxicity or side effects on oral administration: TBN 1.5 mM, AN9 300 μM concentrations.
For data set [5] the following is noted: cited from earlier work.
For data set [6] the following is noted: human, in vivo; cited from earlier work.
Data set [7] deals with E17.5 hippocampal neurons. As to the kind of experiment: Neuronal stage 3 frequency with chloramphenicol and NaBt. The data set is classed as cell-based. Particulars: no NaBt. An excerpt:
FIG. 16A-16I are images from microscopy and a graph showing that Pre-treatment of E17.5 hippocampal neurons with NaBt protects against chloramphenicol-induced loss of neuronal differentiation. (A-D) Confocal micrographs of E17.5 hippocampal neurons exposed to different concentrations of chloramphenicol at 2DIV and labeled with anti tubulin antibody (red) and nuclear counterstain DAPI (blue) at 3DIV. Scale bar represents 10 μm. (E-H) Confocal micrographs of E17.5 hippocampal neurons treated with NaBt (2 mM) at 1DIV prior to exposure to different concentrations of chloramphenicol at 2DIV and labeled with anti tubulin antibody (red) and nuclear counterstain DAPI (blue) at 3DIV. Scale bar represents 10 μm. (I) Graph of E17.5 β-III^+ hippocampal neurons at the neuronal stage 3. Mean±S.D. (n=250 cells; compared to untreated control *p=0.0001; compared to the corresponding non-NaBt treated sample **p=0.0001; compared to non-NaBt treated cells exposed to Cm at 30 μM‡p=0.007).
The consequences of chloramphenicol exposure on untreated or NaBt-treated E17.5 hippocampal neurons was examined. At 1DIV, dissociated E17.5 hippocampal neurons were switched to differentiation medium in the absence or presence of NaBt (2 mM) for 24 hours before being treated with increasing concentrations of chloramphenicol (0, 15, 30, and 60 μM) for 24 hours. At 3DIV, their phenotypic differentiation was examined by immunocytochemistry using an antibody against the pan-neuronal marker β-III tubulin and quantified the percent of neurons having reached the developmental stage 3 for each experimental condition. As expected, only half of untreated neurons reached stage 3 in the absence of NaBt, while more than 90% of NaBt-treated neurons achieved such degree of differentiation, thereby forming an elaborate neuritic network (FIGS. 16A, E, and I).

Data set [8] has as its system PC12-ND6 cells. The experiment in a line: Mitochondrial mass under chloramphenicol (mito-GFP live-cell confocal microscopy). It counts as cell-based. To be noted: chloramphenicol-treated. The source says:
(§3) FIG. 14A-14E are images from microscopy showing that pre-treatment of PC12-ND6 cells with NaBt prevents chloramphenicol-mediated decrease of mitochondrial mass. (A) Graph of PC12-ND6 cell death upon exposure to different concentrations of chloramphenicol (Cm). Percent of cell death±SEM (n=250 cells). (B) Quantitative immunoblot analysis of mitochondrial-encoded MT-CO1 protein (green) and nuclear-encoded SDH-A protein (red) in Cm-treated PC12-ND6 cells. (C) Graph of MT-CO1/SDH-A ratio normalized to untreated PC12-ND6 cells. Mean±SEM (n=3; compared to untreated cells *p=0.0052, **p=0.0048, and ***p=0.0034). (D) Confocal micrographs of untreated and Cm-treated PC12-ND6 cells transfected with the vector mito-GFP. Scale bar represents 5 μm. (E) Confocal micrographs of NaBt pre-treated PC12-ND6 cells transfected with the vector mito-GFP and exposed to Cm. Scale bar represents 5 μm.
(§4) The efficacy of chloramphenicol treatment was determined by simultaneously examining the expression levels of the nuclear-encoded succinate dehydrogenase (SDH-A) subunit of Complex II and the mitochondrial-encoded subunit I of Complex IV (MT-COI) using a quantitative immunoblot approach. […] The effect of chloramphenicol on mitochondrial mass by live-cell confocal microscopy using PC12-ND6 cells transfected with the vector mito-GFP was confirmed.

For a further data set, the system named is SDH-A. As to the kind of experiment: Quantitative immunoblot of nuclear-encoded SDH-A. The data set is classed as cell-based. To be noted: chloramphenicol 15-60 μM.
Text: as §3, §4
For orientation: In western blotting, separated proteins are transferred to a membrane and probed.

The subject of data set [9] is PC12-ND6 cells. The experiment in a line: NGF (100 ng/ml)-mediated neurite outgrowth after chloramphenicol. The data set is classed as cell-based. Particulars: chloramphenicol lowest concentration two days, then NGF 100 ng/ml three days. An excerpt: FIG. 15A-15C are images from microscopy and a graph showing that Pre-treatment of PC12-ND6 cells negates the inhibitory effect of chloramphenicol on NGF-mediated neuronal differentiation. (A) Confocal micrographs of untreated and Cm-treated PC12-ND6 cells transfected with the vector mito-GFP and exposed to NGF. Scale bar represents 20 μm. (B) Confocal micrographs of NaBt pre-treated PC12-ND6 cells transfected with the vector mito-GFP and exposed to chloramphenicol prior to NGF treatment. Scale bar represents 20 μm. (C) Graph of average total neurite length. Mean±SEM (n=50 cells; compared to untreated PC12-ND6 cells *p=0.0001; compared to non-NaBt-treated PC12-ND6 cells with corresponding Cm concentration **p=0.0001).
Based on the results that NaBt endows PC12-ND6 cells with increased mitochondrial mass through biogenesis, resulting in accelerated neuronal differentiation, it was examined whether exposure to NaBt for three days could confer protection to chloramphenicol-mediated inhibition of neuronal differentiation upon NGF signaling.

Data set [10] concerns PC12-ND6 cells. The experiment in a line: Cell death upon chloramphenicol exposure. It counts as cell-based. Particulars: chloramphenicol 0, 15, 30, 60 μM, two days.
Text: as §3, §4

In the next data set the test system is MT-COI. The experiment in a line: Quantitative immunoblot of mitochondrial-encoded MT-COI. The data set is classed as cell-based. Particulars: lowest dose of chloramphenicol.
Text: as §3, §4

Data set [11] relates to PC12-ND6 cells. To be noted: dbcAMP alone, PC12 cell system; cited from earlier work.
Data set [12] deals with MELAS fibroblasts. The experiment in a line: Apoptosis induced by hydroxamate HDACis. It counts as cell-based, human.
The test system of data set [13] is PC12-ND6 cells. Particulars: TSA 0.66 μM, control HDAC inhibitor; cited from earlier work.

Take `CCCC(=O)OCOC(=O)C(C)(C)C` [AN9, pivaloyloxymethyl butyrate]: the “mitochondrial mass, morphology, and networking” value in the data set on MELAS fibroblasts [1] was “restored normal mitochondrial mass, morphology, and networking”. Also, the connectivity among mitochondria result in the data set on MELAS fibroblasts [2] is “rescue the connectivity among mitochondria”. For the same compound, the “optimal safe concentration for eliciting maximal mitochondrial biogenesis without cellular toxicity” value in data set [3] is 300 µM. The “toxicity or side effects on oral administration” value in data set [4] is “without toxicity or side effects”. In [4] (in vivo), the toxicity entry is “low toxicity”. In addition, the “oral pharmacological concentrations relative to NaBt” value in data set [4] (orally administered) is reported as 140 times lower than NaBt. The cell membrane permeability result in data set [5] is recorded as “increased cell membrane permeability”.
With `CCCC(=O)OCC(COC(=O)CCC)OC(=O)CCC` [TBN, tributyrin], in the data set with MELAS fibroblasts [1], the “mitochondrial mass, morphology, and networking” value was “restored normal mitochondrial mass, morphology, and networking”. Further, the connectivity among mitochondria entry with MELAS fibroblasts [2] was “rescue the connectivity among mitochondria”. In addition, the “optimal safe concentration for eliciting maximal mitochondrial biogenesis without cellular toxicity” value in data set [3] was 1500 µM. In addition, the “toxicity or side effects on oral administration” value in [4] is “without toxicity or side effects”. Besides, in data set [4] (oral), the “concentration pharmacologically attainable via oral administration without toxicity or side effects” value was “up to 2 mM”.
As for `CCCC(CCC)C(=O)O` [Valproic acid], the effect on seizures entry in data set [6] is “propensity to worsen seizures”.
With `O=C(N[C@H](CO)[C@H](O)c1ccc([N+](=O)[O-])cc1)C(Cl)Cl` [chloramphenicol], the “percent of neurons at stage 3” value in [7] (chloramphenicol 15 μM) is “did not alter the percent of neurons at stage 3”. The “decreased transition to stage 3” value came out at 27% in data set [7] (chloramphenicol 30 μM) and 54% in [7] (chloramphenicol 60 μM). Besides, in the data set with PC12-ND6 cells [8], the mitochondrial mass result is “concentration-dependent decrease of mitochondrial mass”. Besides, the SDH-A expression levels result in the data set on SDH-A is “none of the chloramphenicol concentrations altered”. Moreover, the “reduction in total neurite length” value with PC12-ND6 cells [9] is reported as 43%. Besides, in the data set on PC12-ND6 cells [10], the cell death result is listed as “negligible cell death”. The MT-COI expression entry in the data set with MT-COI is “abolished most of MT-COI expression”.
`CCCC(=O)Nc1ncnc2c1ncn2[C@@H]1O[C@@H]2COP(=O)(O)O[C@H]2[C@H]1OC(=O)CCC` [dbcAMP]: in the data set with PC12-ND6 cells [11], the neurite length is listed as 15-20 μm.
For `CC(/C=C/C(=O)NO)=C\[C@@H](C)C(=O)c1ccc(N(C)C)cc1` [trichostatin A], in the data set with MELAS fibroblasts [12], the apoptosis result is “induce apoptosis”. For the same compound, the cell death entry in the data set with PC12-ND6 cells [13] is “mild cell death”.
Regarding `O=C(CCCCCCC(=O)Nc1ccccc1)NO` [vorinostat], the apoptosis entry in the data set with MELAS fibroblasts [12] is recorded as “induce apoptosis”.
